Results on eight molecules are retold here after US8445526B2, “Compositions and methods for treatment of glaucoma” (Glaucoma & Nasal Therapies LLC, priority 2011, dated 2013).

≈ marks a conversion by molar mass, not a printed value. Read-outs that look alike come from different tables or passages of the source.

The subject of series [1] is α-2 over α-1 adrenergic receptors. The note with it: binding affinity for α-2 over α-1 receptors; cited from earlier work.
Series [2] deals with ocular hypertensive and normotensive eyes of patients. The note with it: cited from earlier work; for equivalent reduction in normotensive human eyes: prior art formulations.
For the next series, the system named is normotensive rabbits. The following applies: cited from earlier work; for contralateral (nontreated eye) IOP reduction compared to the treated eye / time of peak effect: normotensive rabbits; for time of peak effect: dexmedetomidine 0.05%, brimonidine tartrate 0.10%.
For series [3], the system named is normotensive (<21 mm Hg) human subject. The note with it: after instillation. On the procedure: Various formulations of α-2 agonists were unilaterally administered to a normotensive (<21 mm Hg) human subject. The subject first underwent baseline IOP testing using standard applanation tonometry via slit lamp. After fluorescein instillation, the drug was instilled as a morning dose at between about 7:00 and 9:00 AM. […] Follow up IOP checks were designed to be about 4 hours after initial instillation, where instillation consisted of 1-2 drops.

Another series relates to normotensive eyes. The following applies: under specific and very limited formulation conditions.
Another series relates to one eye of an individual. The series can be described thus: Example 3: cosmetic appearance (redness, whiteness) of the treated eye. Type of series: in vivo, human. The following applies: for Eye White Shade: baseline 1; for Redness: baseline 1.5.
Where [4] appears, read: conventional brimonidine formulations.

Take `Cc1cc(C(C)(C)C)c(O)c(C)c1CC1=NCCN1` [Oxymetazoline]: the “α2:α1” value in series [1] is on record as 50.

Consider `Brc1c(NC2=NCCN2)ccc2nccnc12` [Brimonidine], for which the “substantial local side effects” value in series [2] (conjunctival hyperemia, blepharitis, allergy, edema, follicles, foreign body sensation, burning, blurring) is on record as 10-25 % of users. In addition, the “time of peak IOP reduction effect after instillation” value in series [2] (conventional brimonidine formulations, normotensive eyes) was 2 to 3 h. In addition, in series [2] (setting [4]), the “duration of IOP reduction effect of a single dose” value is not above 12 h and the “peak IOP reduction effect in normotensive eyes” value is 15-18%. In addition, in series [2] (human, in vivo), the “peak IOP reduction in normotensive eyes (less than 21 mm Hg)” value is 6-18%; the “peak IOP reduction in ocular hypertensive eyes” value is reported as 20-25%; the “peak effect within (time of instillation)” value is 2 to 3 h; the “topical lid and conjunctival allergy, dryness, and redness” value is on record as “over 10 % of patients”. Also, the “users complaining of dryness” value in series [2] (human, in vivo) is “more than 10%”. In addition, the rebound redness in series [2] (long term use) is recorded as 20-25%. Further, the “equivalent reduction in normotensive human eyes” value in series [2] is “about 20%”. Further, in series [2] (typically), the duration of effect entry is listed as “less than 12 hours”. Also, in the series with normotensive rabbits, the “contralateral (nontreated eye) IOP reduction compared to the treated eye” value was “about 10%” and the “time of peak effect” value is recorded as “about 3 hours”. Moreover, in series [3], the “IOP reduction peaking at (time)” value was determined as 2 h.

As for `Clc1cccc(Cl)c1N=C1NCCN1` [Clonidine], the “α2:α1” value in series [1] was 200.

brimonidine tartrate: in the series on normotensive rabbits (0.10% solution in normotensive rabbits), the “peak IOP reduction” value is listed as “about 6.2 mm Hg”.

In the case of `CC(Oc1c(Cl)cccc1Cl)C1=NCCN1` (stereo not shown) [Lofexidine], the “α2:α1” value in series [1] is on record as less than 300.

Turning to `Cc1cccc([C@H](C)c2cnc[nH]2)c1C` [Dexmedetomidine], the max soluble concentration reads like this: (pH 6) 0.195%; (pH 6.4) 0.060%; (pH 7) 0.023%; (pH 7.4) 0.015%; (pH 8) 0.013%. Moreover, the “solubility” value (pH 6) is 1953 µg/mL (≈ 9750 µM), the “solubility” value (pH 7) was determined as 224 µg/mL (≈ 1120 µM) and the “solubility” value (pH 8) is 134 µg/mL (≈ 669 µM). The “more effective than brimonidine by (IOP reduction vs. time)” value in the series on normotensive eyes is given as “about 200%”. Also, the “start of decrease in hyperemia and increase in whiteness” value in the series on one eye of an individual (after the application) was “about 2 minutes”. The “time to maximum whiteness” value with one eye of an individual (after the application) is “about 10 minutes”. The “Eye White Shade” value in the series with one eye of an individual (dexmedetomidine 0.010%, 4 (whitest)-1 off-white-gray/yellow) stood at 1; in the series with one eye of an individual (dexmedetomidine 0.022%, scale 4-1) it was 1.25; with one eye of an individual (dexmedetomidine 0.050%, scale 4-1), 1.5; with one eye of an individual (dexmedetomidine 0.10%, scale 4-1) it was 1.75; in the series on one eye of an individual (dexmedetomidine […], scale 4-1), 1.5. Moreover, the Redness with one eye of an individual (dexmedetomidine 0.010%, scale 0 (none)-4 (reddest + chemosis)) is 1.25; in the series with one eye of an individual (dexmedetomidine 0.022%, scale 0-4), 1.25; in the series on one eye of an individual (dexmedetomidine 0.050%, scale 0-4), 1.0; in the series with one eye of an individual (dexmedetomidine 0.10%, scale 0-4), 0.75; with one eye of an individual (dexmedetomidine […], scale 0-4), 1.0. Also, in the series on one eye of an individual (in vivo), the “total duration of the effect (reduced hyperemia, increase in whiteness)” value fell in the range of 3 to 5 h. Also, in series [2], the “equivalent reduction in normotensive human eyes” value is on record as “about 20%”. The “α2:α1” value in series [1] is reported as 1620. The “pressure reduction in the nontreated (contralateral) eye relative to the treated eye” value in the series on normotensive rabbits (0.02% in normotensive rabbits, U.S. Pat. No. 5,304,569) is recorded as 100%. For the same molecule, the pressure reduction with normotensive rabbits (0.05% in normotensive rabbits, Vartiainen et al) is 4.75 mm Hg. The “contralateral (nontreated eye) IOP reduction compared to the treated eye” value with normotensive rabbits was “about 100%”. Further, the “time of peak effect” value in the series with normotensive rabbits is on record as “about 2 hours”.

For the molecule `Nc1cc(Cl)c(N=C2NCCN2)c(Cl)c1` [Apraclondine], the “α2:α1” value in series [1] was 150.

As to `Cc1cccc(C)c1N=C1NCCCS1` [Xylazine], in series [1], the “α2:α1” value is 160.
